Measurements: patent US6046217A, “2,3,5-trisubstituted pyridines as inhibitors of cyclooxygenase-2” (Merck Frosst Canada & Co., priority 1998, dated 2000)
Read-outs that look alike come from different tables or passages of the source.

Assays:
COX-1 [1] = target: T1, COX-1 (Homo sapiens, UniProt P23219); test: Human whole blood assay, COX-1 (clotting-induced TxB2 production); format: cell-based; design: platelets in whole blood contain a large amount of the COX-1 enzyme; endogenous in cells; host or cells: platelets in fresh human whole blood, clotting
From the text: (§1) As well, platelets in whole blood contain a large amount of the COX-1 enzyme. Immediately following blood clotting, platelets are activated through a thrombin-mediated mechanism. This reaction results in the production of thromboxane B2 (TxB2) via activation of COX-1. Thus, the effect of test compounds on TxB2 levels following blood clotting can be examined and used as an index for COX-1 activity. Therefore, the degree of selectivity by the test compound can be determined by measuring the levels of PGE2 after LPS induction (COX-2) and TxB2 following blood clotting (COX-1) in the same assay.
Fresh blood is collected into vacutainers containing no anticoagulants. […] The tubes are vortexed and incubated at 37° C. for 1 hour to allow blood to clot. At the end of incubation, serum is obtained by centrifugation (12,000×g for 5 min.). A 100 μL aliquot of serum is mixed with 400 μL of methanol for protein precipitation.

COX-2 [2] = target: T2, COX-2 (Homo sapiens, UniProt P35354); test: cell-based; conditions: CHO[hCOX-2] cells, 10 μM AA, 15 min preincubation; read-out: COX-2 (IC50 mM) CHO
T2 sequence (P35354 18-604): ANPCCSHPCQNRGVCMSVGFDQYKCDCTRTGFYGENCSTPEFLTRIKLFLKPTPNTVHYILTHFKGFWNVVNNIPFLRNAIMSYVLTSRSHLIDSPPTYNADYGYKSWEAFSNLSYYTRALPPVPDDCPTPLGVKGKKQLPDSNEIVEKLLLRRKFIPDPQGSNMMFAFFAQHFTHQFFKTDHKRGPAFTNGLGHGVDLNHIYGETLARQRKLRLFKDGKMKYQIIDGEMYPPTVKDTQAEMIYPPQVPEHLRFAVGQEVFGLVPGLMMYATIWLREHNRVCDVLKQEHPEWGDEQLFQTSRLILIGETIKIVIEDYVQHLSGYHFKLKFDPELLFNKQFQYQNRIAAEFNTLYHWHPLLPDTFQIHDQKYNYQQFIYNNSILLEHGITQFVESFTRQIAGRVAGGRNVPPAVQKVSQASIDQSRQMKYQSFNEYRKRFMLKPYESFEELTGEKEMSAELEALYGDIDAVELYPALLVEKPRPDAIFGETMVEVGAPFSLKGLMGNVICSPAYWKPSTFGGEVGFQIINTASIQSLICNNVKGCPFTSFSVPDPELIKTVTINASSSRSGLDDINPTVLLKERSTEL
Protocol: For cyclooxygenase assays, CHO[hCOX-1] cells from suspension cultures and CHO[hCOX-2] cells prepared by trypsinization of adherent cultures are harvested by centrifugation (300×g, 10 min) and washed once in HBSS containing 15 mM HEPES, pH 7.4, and resuspended in HBSS, 15 mM HEPES, pH 7.4, at a cell concentration of 1.5×10^6 cells/ml. Drugs to be tested are dissolved in DMSO to 66.7-fold the highest test drug concentration. […] Cells (0.3×10^6 cells in 200 μl) are preincubated with 3 μl of the test drug or DMSO vehicle for 15 min at 37° C. Working solutions of peroxide-free AA (5.5 μM and 110 μM AA for the CHO [hCOX-1] and CHO [COX-2] assays, respectively) are prepared by a 10-fold dilution of a concentrated AA solution in ethanol into HBSS containing 15 mM HEPES, pH 7.4. Cells are then challenged in the presence or absence of drug with the AA/HBSS solution to yield a final concentration of 0.5 μM AA in the CHO[hCOX-1] assay and a final concentration of 10 μM AA in the CHO[hCOX-2] assay. The reaction is terminated by the addition of 10 μl 1 N HCl followed by neutralization with 20 μl of 0.5 N NaOH. The samples are centrifuged at 300 ×g at 4° C. for 10 min, and an aliquot of the clarified supernatant is appropriately diluted for the determination of PGE2 levels using an enzyme-linked immunoassay for PGE2 (Correlate PGE2 enzyme immunoassay kit, Assay Designs, Inc.). Cyclooxygenase activity in the absence of test compounds is determined as the difference in PGE2 levels of cells challenged with arachidonic acid versus the PGE2 levels in cells mock-challenged with ethanol vehicle. Inhibition of PGE2 synthesis by test compounds is calculated as a percentage of the activity in the presence of drug versus the activity in the positive control samples.

COX-2 [3] = target: T2, COX-2; test: cell-based; conditions: human whole blood, LPS-induced PGE2, 24 h; read-out: COX-2 (IC50 mM) HWB
From the text: as §1
Fresh blood is collected in heparinized tubes by venipuncture from both male and female volunteers. The subjects have no apparent inflammatory conditions and have not taken any NSAIDs for at least 7 days prior to blood collection. Plasma is immediately obtained from a 2mL blood aliquot to use as blank (basal levels of PGE2). The remaining blood is incubated with LPS (100 μg/ml final concentration, Sigma Chem, #L-2630 from E. coli; diluted in 0.1% BSA (Phosphate buffered saline) for 5 minutes at room temperature. Five hundred […] aliquots of blood are incubated with either 2 μL of vehicle (DMSO) or 2 μL of a test compound at final concentrations varying from 10 nM to 30 μM for 24 hours at 37° C. At the end of the incubation, the blood is centrifuged at 12,000×g for 5 minutes to obtain plasma. A 100 μL aliquot of plasma is mixed with 400 μL of methanol for protein precipitation. The supernatant is obtained and is assayed for PGE2 using a radioimmunoassay kit (Amersham, RPA#530) after conversion of PGE2 to its methyl oximate derivative according to the manufacturer's procedure. […]

COX-1 [4] = target: T1, COX-1; test: Assay of COX-1 activity from U937 cell microsomes (PGE2); format: biochemical; design: Assay of COX-1 Activity from U937 Cell Microsomes; endogenous in cells; host or cells: U937 cells, 100,000 x g microsomal pellet; conditions: 15 min preincubation
Protocol: U 937 cells are pelleted by centrifugation at 500×g for 5 min and washed once with phosphate-buffered saline and repelleted. Cells are resuspended in homogenization buffer consisting of 0.1 M Tris-HCl, pH 7.4, 10 mM EDTA, […] leupeptin, 2 μg/ml soybean trypsin inhibitor, 2 μg/ml aprotinin and 1 mM phenyl methyl sulfonyl fluoride. The cell suspension is sonicated 4 times for 10 sec and is centrifuged at 10,000×g for 10 min at 4° C. The supernatant is centrifuged at 100,000×g for 1 hr at 4° C. The 100,000×g microsomal pellet is resuspended in 0.1 M Tris-HCl, pH 7.4, 10 mM EDTA to approximately 7 mg protein/ml and stored at -80° C.
Microsomal preparations are thawed immediately prior to use, subjected to a brief sonication, and then diluted to a protein concentration of 125 μg/ml in 0.1 M Tris-HCl buffer, pH 7.4 containing 10 mM EDTA, 0.5 mM phenol, 1 mM reduced glutathione and 1 μM hematin. Assays are performed in duplicate in a final volume of 250 μl. Initially, 5 μl of DMSO vehicle or drug in DMSO are added to 20 μl of 0.1 M Tris-HCl buffer, pH 7.4 containing 10 mM EDTA in wells of a 96-deepwell polypropylene titre plate. 200 μl of the microsomal preparation are then added and pre-incubated for 15 min at room temperature before addition of 25 μl of […] arachidonic acid in […] Tris-HCl and 10 mM EDTA, pH 7.4. Samples are incubated for 40 min at room temperature and the reaction is stopped by the addition of 25 μl of 1 N HCl. Samples are neutralized with 25 μl of 1 N NaOH prior to quantitation of PGE2 content by radioimmunoassay (Dupont-NEN or Amersham assay kits). Cyclooxygenase activity is defined as the difference between PGE2 levels in samples incubated in the presence of arachidonic acid and ethanol vehicle.
In the assay, inhibition is determined by measuring the amount of prostaglandin E2 (PGE2) synthesized in the presence of arachidonic acid, cyclooxygenase-1 or cyclooxygenase-2 and a putative inhibitor.

[5] = human whole blood, clotting-induced TxB2, 1 h, read-out: COX-1 (IC50 mM) HWB
[6] = U-937 cell microsomes, read-out: COX-1 (IC50 mM) U-937

T1 sequence (P23219 24-599): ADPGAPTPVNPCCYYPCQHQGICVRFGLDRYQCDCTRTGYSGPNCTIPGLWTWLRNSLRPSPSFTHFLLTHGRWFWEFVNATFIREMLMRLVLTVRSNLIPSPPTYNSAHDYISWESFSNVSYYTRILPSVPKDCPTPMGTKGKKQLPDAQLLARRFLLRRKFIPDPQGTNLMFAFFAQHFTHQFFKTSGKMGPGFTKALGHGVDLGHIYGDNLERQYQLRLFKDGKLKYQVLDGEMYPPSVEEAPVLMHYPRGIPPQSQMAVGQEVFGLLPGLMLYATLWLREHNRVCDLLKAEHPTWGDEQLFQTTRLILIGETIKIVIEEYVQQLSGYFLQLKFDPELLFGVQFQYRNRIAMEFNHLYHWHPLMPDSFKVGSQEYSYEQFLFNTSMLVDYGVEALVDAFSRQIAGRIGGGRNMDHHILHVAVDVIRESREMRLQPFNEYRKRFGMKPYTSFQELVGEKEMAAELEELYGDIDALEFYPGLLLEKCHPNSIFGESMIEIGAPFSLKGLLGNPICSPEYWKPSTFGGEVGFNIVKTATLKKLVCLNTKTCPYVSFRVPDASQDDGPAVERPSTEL

Compound	IC50 (COX-1 [1]; [5]) [mM]	IC50 (COX-2 [2]) [µM]	IC50 (COX-2 [3]) [mM]	IC50 (COX-1 [4]; [6]) [mM]	IC50 (COX-1 [1]) [mM]	IC50 (COX-1 [4]; COX-1 (IC50 mM) U-937, U-937 cell microsomes) [mM]
CCC(O)(CC)[C@@H](C)Oc1ncc(C(F)(F)F)cc1-c1ccc(S(C)(=O)=O)cc1 [Example 21, 2-((2R)-3-Ethyl-3-hydroxy-2-pentyloxy)-3-(4-methylsulfonyl)phenyl-5-trifluoromethylpyridine]	> 0.1	0.2	0.0047	> 0.01		
C[C@@H](O)[C@@H](C)Oc1ncc(C(F)(F)F)cc1-c1ccc(S(C)(=O)=O)cc1 [Example 23, 2-((2R,3R)-3-Hydroxy-2-butyloxy)-3-(4-methylsulfonyl)phenyl-5-trifluoromethylpyridine]		0.05	0.0005		> 0.1	> 0.01
C[C@H](CO)Oc1ncc(C(F)(F)F)cc1-c1ccc(S(C)(=O)=O)cc1 [Example 28, 2-((2R)-1-Hydroxy-2-propyloxy)-3-(4-methylsulfonyl)phenyl-5-trifluoromethylpyridine]	> 0.1	0.04	0.0112	> 0.01		
CC(C)(O)/C=C\c1ncc(Cl)cc1-c1ccc(S(C)(=O)=O)cc1 [Example 51, 5-Chloro-2-((Z)-3-Hydroxy-3-methyl-1-butenyl)-3-(4-methylsulfonyl)phenylpyridine]	0.01	0.01	0.0008	0.001 to 0.003		
